In article PMC9516332 (Frontiers in Oncology, 2022):
Like-named read-outs stand apart in the source and are kept apart here.

Key:
FGFR-altered cell lines = assay: Cell viability assay, FGFR-altered versus FGFR wild-type cell lines; format: cell-based; details: MANOVA
[1] = target: T1, panel of 255 wild-type kinases (Homo sapiens, UniProt O14757); details: CHK1 kinase assay; 1 µmol/L single concentration; ref DOI: 10.1158/1535-7163.MCT-18-0877; cited from earlier work
T1 sequence (O14757 1-476): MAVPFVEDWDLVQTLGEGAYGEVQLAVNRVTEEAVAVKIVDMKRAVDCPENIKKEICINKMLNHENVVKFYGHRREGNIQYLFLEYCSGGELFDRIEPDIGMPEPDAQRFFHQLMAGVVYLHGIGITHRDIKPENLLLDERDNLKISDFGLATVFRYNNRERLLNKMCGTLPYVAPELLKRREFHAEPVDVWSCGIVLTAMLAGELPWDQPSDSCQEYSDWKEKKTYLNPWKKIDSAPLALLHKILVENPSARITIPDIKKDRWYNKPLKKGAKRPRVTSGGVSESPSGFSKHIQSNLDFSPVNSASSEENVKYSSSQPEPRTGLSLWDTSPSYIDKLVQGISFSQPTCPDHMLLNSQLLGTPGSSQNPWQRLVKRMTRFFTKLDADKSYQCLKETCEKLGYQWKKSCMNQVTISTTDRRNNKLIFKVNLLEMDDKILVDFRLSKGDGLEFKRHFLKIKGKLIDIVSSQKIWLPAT

[2] = target: panel of 255 wild-type kinases (Homo sapiens, UniProt P00519); details: ABL kinase assay; 1 µmol/L single concentration; ref DOI: 10.1158/1535-7163.MCT-18-0877; cited from earlier work
[3] = target: panel of 255 wild-type kinases (Homo sapiens, UniProt P68400); details: kinase CK2α1/β; 1 µmol/L single concentration; ref DOI: 10.1158/1535-7163.MCT-18-0877; cited from earlier work
[4] = target: panel of 255 wild-type kinases (Homo sapiens, UniProt Q13555); details: CaMK2γ kinase assay, 1 µmol/L single concentration, cited from earlier work
[5] = target: T2, panel of 255 wild-type kinases (Homo sapiens, UniProt Q06418); details: kinase TYRO3; 1 µmol/L single concentration; ref DOI: 10.1158/1535-7163.MCT-18-0877; cited from earlier work
T2 sequence (Q06418 41-890): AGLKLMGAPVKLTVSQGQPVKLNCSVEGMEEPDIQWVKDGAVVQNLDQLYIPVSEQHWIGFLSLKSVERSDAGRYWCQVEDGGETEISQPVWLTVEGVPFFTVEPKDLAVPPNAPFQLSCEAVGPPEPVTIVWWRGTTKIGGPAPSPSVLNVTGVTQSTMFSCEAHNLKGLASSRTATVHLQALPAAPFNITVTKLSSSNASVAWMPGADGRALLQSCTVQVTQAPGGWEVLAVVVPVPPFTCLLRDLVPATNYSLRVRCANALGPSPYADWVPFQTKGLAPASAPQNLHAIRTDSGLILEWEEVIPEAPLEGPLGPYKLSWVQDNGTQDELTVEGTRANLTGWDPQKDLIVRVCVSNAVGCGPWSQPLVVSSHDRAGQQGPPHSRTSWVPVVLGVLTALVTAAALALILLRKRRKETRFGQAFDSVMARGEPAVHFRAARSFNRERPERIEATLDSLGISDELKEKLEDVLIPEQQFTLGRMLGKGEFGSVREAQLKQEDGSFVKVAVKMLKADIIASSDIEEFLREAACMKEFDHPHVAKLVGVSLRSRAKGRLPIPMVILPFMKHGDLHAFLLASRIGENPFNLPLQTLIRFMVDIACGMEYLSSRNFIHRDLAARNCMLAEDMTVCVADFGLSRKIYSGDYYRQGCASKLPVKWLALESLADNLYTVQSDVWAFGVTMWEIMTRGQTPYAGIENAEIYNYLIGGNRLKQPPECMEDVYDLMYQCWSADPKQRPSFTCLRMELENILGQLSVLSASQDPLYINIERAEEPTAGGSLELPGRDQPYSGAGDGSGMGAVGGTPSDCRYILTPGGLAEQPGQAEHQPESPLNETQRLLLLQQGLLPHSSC

[6] = target: panel of 255 wild-type kinases (Homo sapiens, UniProt P06493); details: CDC2/CycB1 kinase assay; 1 µmol/L single concentration; ref DOI: 10.1158/1535-7163.MCT-18-0877; cited from earlier work
[7] = target: panel of 255 wild-type kinases (Homo sapiens, UniProt P07948); details: kinase LYNa; 1 µmol/L single concentration; ref DOI: 10.1158/1535-7163.MCT-18-0877; cited from earlier work
[8] = target: panel of 255 wild-type kinases (Homo sapiens, UniProt Q16654); details: kinase PDHK4, 1 µmol/L single concentration, cited from earlier work
[9] = target: T3, panel of 255 wild-type kinases (Homo sapiens, UniProt Q13188); details: MST2; 1 µmol/L single concentration; ref DOI: 10.1158/1535-7163.MCT-18-0877; cited from earlier work
T3 sequence (Q13188 1-491): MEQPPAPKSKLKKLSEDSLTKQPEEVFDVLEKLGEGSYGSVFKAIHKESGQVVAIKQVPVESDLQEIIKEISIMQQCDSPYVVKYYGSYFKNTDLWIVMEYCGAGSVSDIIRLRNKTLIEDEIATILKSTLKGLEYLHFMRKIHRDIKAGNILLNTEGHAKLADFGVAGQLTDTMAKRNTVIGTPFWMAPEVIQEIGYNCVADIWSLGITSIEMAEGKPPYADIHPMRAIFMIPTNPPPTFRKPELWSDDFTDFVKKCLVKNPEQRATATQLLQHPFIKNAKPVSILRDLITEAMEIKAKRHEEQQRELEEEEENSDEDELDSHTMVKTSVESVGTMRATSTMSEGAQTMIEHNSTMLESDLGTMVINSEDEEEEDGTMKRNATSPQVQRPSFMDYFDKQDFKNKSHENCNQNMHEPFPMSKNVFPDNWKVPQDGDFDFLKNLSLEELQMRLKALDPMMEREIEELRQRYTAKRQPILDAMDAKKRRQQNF

EGFR-mutant cell lines = assay: Cell viability assay, EGFR-mutant versus EGFR wild-type cell lines; format: cell-based; details: on average; MANOVA
[10] = ref DOI: 10.1158/1535-7163.MCT-18-0877
[11] = ref DOI: 10.1371/journal.pone.0092146

SMILES	activity in FGFR-altered versus wild-type cell lines (FGFR-altered cell lines)	%-inhibition CHK1 [1] [%]	%-inhibition ABL [2] [%]	%-inhibition at 1 µmol/L, CK2α1/β [3] [%]	%-inhibition CaMK2γ [4, 10] [%]	%-inhibition at 1 µmol/L, TYRO3 [5] [%]	%-inhibition CDC2/CycB1 [6] [%]	%-inhibition at 1 µmol/L, LYNa [7] [%]	%-inhibition at 1 µmol/L, PDHK4 [8, 10] [%]	%-inhibition, MST2 [9] [%]	lower IC50 (higher potency) in EGFR-mutant compared to EGFR wild-type cell lines (EGFR-mutant cell lines)	%-inhibition CaMK2γ [4, 11] [%]	%-inhibition at 1 µmol/L, PDHK4 [8, 11] [%]
CO[C@]1(C(=O)N[C@@H](C)c2ccc(-n3cc(F)cn3)nc2)CC[C@H](c2nc(C)cc(Nc3cc(C)[nH]n3)n2)CC1 [pralsetinib]	around ten times more active												
O=C(c1ccc(F)c(F)c1Nc1ccc(I)cc1F)N1CC(O)([C@@H]2CCCCN2)C1 [cobimetinib]		9	-4	-9	-2.31	4.55	-0.108	-1.81	-1.13	1.8			
COc1cc2ncnc(Nc3ccc(F)c(Cl)c3)c2cc1NC(=O)/C=C/CN1CCCCC1 [dacomitinib]											about 110 fold		
C=CC(=O)N1CCC([C@@H]2CCNc3c(C(N)=O)c(-c4ccc(Oc5ccccc5)cc4)nn32)CC1 [zanubrutinib]											8 fold		
CC(C)(C)c1nc(-c2cccc(NS(=O)(=O)c3c(F)cccc3F)c2F)c(-c2ccnc(N)n2)s1 [dabrafenib]												-5.47	-1
Cc1cc(Nc2ncc(Cl)c(Nc3ccccc3S(=O)(=O)C(C)C)n2)c(OC(C)C)cc1C1CCNCC1 [ceritinib]		1.32	-1.61	-8	32	7	2.5	16	2.55	2.76			
CCc1cc2c(cc1N1CCC(N3CCOCC3)CC1)C(C)(C)c1[nH]c3cc(C#N)ccc3c1C2=O [alectinib]		0.288	5	-3.18	6	30	3.54	32	1.7	-1.42			
